Source: patent publication US10683321B2, “4′-or nucleosides for the treatment of HCV” (IDENIX PHARMACEUTICALS LLC, priority 2013, dated 2020)

Assays:
[1] = system: HCV genotype 1b replicon in Huh-7-derived cell line (Zluc); test: HCV Replicon Assay (luciferase reporter); format: cell-based; details: Hepatitis C virus; Zluc cells, 72 hours of incubation, luciferase readout
Description: Huh-7-derived cell line (Zluc) that harbors an HCV genotype 1b replicon and a luciferase reporter gene was grown in Dulbecco's Modified Eagle Medium (DMEM) supplemented with 10% fetal bovine serum, 2 mM GlutaMAX, 1% MEM nonessential amino acids, 100 IU/mL penicillin, 100 μg/mL streptomycin, and 0.5 mg/mL Geneticin® (G418). For dose response testing the cells were seeded in 96-well plates at 7.5×10^3 cells per well in a volume of 50 μL, and incubated at 37° C./5% CO2. Drug solutions were made up freshly in Huh-7 media as 2× stocks. Ten additional 5-fold dilutions were prepared from these stocks in DMEM without G418. At least three hours after Zluc cells were seeded, drug treatment was initiated by adding 50 μL of drug dilutions to the plates in duplicate. Final concentrations of drug ranged from 100 μM to 0.0000512 μM. Cells were then incubated at 37° C./5% CO2. Alternatively, compounds were tested at two concentrations (1 μM and 10 μM). […] After 72 hours of incubation, the inhibition of HCV replication was measured by quantification of photons emitted after mono-oxygenation of 5′-fluoroluciferin to oxyfluoroluciferin by firefly luciferase. For this, media was removed from the plates via gentle tapping. Fifty microliters of ONE-glo luciferase assay reagent was added to each well. The plates were shaken gently for 3 min at room temperature and luminescence was measured on a Victor^3 V 1420 multilabel counter (Perkin Elmer) with a 1 second read time using a 700 nm cut-off filter. The EC50 values were calculated from dose response curves from the resulting best-fit equations determined by Microsoft Excel and XLfit 4.1 software. When screening at two fixed concentrations, the results were expressed as % inhibition at 1 μM and 10 μM.

[2] = Cytotoxicity evaluation, CellTiter-Blue Cell Viability Assay; format: cell-based; details: human, Zluc cells (HCV replicon)
Description: For cytotoxicity evaluation, Zluc cells were treated with compound as described herein, and cell viability was monitored using the CellTiter-Blue Cell Viability Assay (Promega) by adding 20 μL of the assay solution to each well. The plates were then incubated at 37° C./5% CO2 for at least 3 hours. Fluorescence was detected in plates using excitation and emission wavelengths of 560 and 590 nm, respectively, in a Victor^3 V 1420 multilabel counter (Perkin Elmer) and CC50 values were determined using Microsoft Excel and XLfit 4.1 software.

[3] = molecular target: T1, wild-type HCV genotype 1b NS5B protein (recombinant HCV polymerase) (Hepatitis C virus genotype 1b, UniProt Q9WMX2); test: HCV Polymerase Enzyme Assay, wild-type; format: biochemical
T1 construct: HCV genotype 1b NS5B protein were used to generate recombinant HCV polymerases (with a deletion of the 21 carboxy terminal amino acids); made in house
Text: (§1) Test compounds in the form of nucleoside triphosphates were examined for inhibitory activity against purified HCV polymerase in a standard assay. Bacterial expression constructs encoding the approximately 65 kDa HCV genotype 1b NS5B protein were used to generate recombinant HCV polymerases (with a deletion of the 21 carboxy terminal amino acids). Both the wild-type genotype 1b protein and protein containing the S282T mutation were expressed and purified for use in the enzymatic activity assay.
(§2) The enzymatic activity assay measured the inhibitory effect of increasing concentrations of test compound on the incorporation of α-[^33P]-labeled nucleotide into trichloroacetic acid-precipitable material. Recombinant polymerase and synthetic RNA template were combined in reaction buffer containing ribonucleoside triphosphates, α-[^33P]-labeled nucleotide and eight concentrations of test compound in three-fold dilutions. Reactions were incubated for two hours at 30° C.
(§3) Reactions were terminated by the addition of ice-cold trichloroacetic acid and sodium pyrophosphate to promote precipitation of newly-synthesized ribonucleic acid. Precipitable material from the reactions was collected by filtration onto 96-well filter plates, washed extensively with water, and quantified by liquid scintillation.
(§4) The inhibitory activity of test compounds was determined by fitting results to dose-response curves using XLfit software.

[4] = molecular target: T2, HCV genotype 1b NS5B protein containing the S282T mutation (Hepatitis C virus genotype 1b, UniProt Q9WMX2, S2701T); test: HCV Polymerase Enzyme Assay, S282T mutant; format: biochemical
T2 construct: HCV genotype 1b NS5B protein were used to generate recombinant HCV polymerases (with a deletion of the 21 carboxy terminal amino acids); made in house
Text: as §1, §2, §3, §4

Row | Structure (SMILES) | EC50 [1] | CC50 at 72 h [2] | IC50 [3] | IC50 [4]
1 | CO[C@]1(COP(=O)(N[C@@H](C)C(=O)OC(C)C)OCCSC(=O)C(C)(C)C)O[C@@H](n2ccc(N)nc2=O)[C@H](O)[C@@H]1O (single isomer, unassigned) [Compound 16a] | > 10 µM | > 50 µM | – | –
2 | CO[C@]1(CO)O[C@@H](n2ccc(=O)[nH]c2=O)[C@H](O)[C@@H]1O [Compound 2a] | > 10 µM | > 50 µM | – | –
3 | CO[C@]1(CO)O[C@@H](n2ccc(=O)[nH]c2=O)[C@H](F)[C@@H]1O [Compound 2b] | > 10 µM | > 50 µM | – | –
4 | CO[C@]1(CO)O[C@@H](n2ccc(=O)[nH]c2=O)[C@H](O)[C@@H]1F [Compound 2c] | > 10 µM | > 50 µM | – | –
5 | CO[C@@]1(CO)C[C@@H](O)[C@H](n2ccc(=O)[nH]c2=O)O1 [Compound 2d] | > 10 µM | > 50 µM | – | –
6 | CO[C@]1(CO)O[C@@H](n2ccc(=O)[nH]c2=O)[C@H](O)[C@@H]1N=[N+]=[N-] [Compound 2e] | > 10 µM | > 50 µM | – | –
7 | CO[C@]1(CO)O[C@@H](n2ccc(N)nc2=O)[C@H](O)[C@@H]1O [Compound 5a2] | > 10 µM | > 50 µM | – | –
8 | CO[C@]1(CO)O[C@@H](n2ccc(N)nc2=O)[C@H](O)[C@@H]1F [Compound 5c] | > 10 µM | > 50 µM | – | –
9 | CCO[C@]1(CO)O[C@@H](n2ccc(=O)[nH]c2=O)[C@H](O)[C@@H]1O [Compound 6a] | > 10 µM | > 50 µM | – | –
10 | CC(C)O[C@]1(CO)O[C@@H](n2ccc(=O)[nH]c2=O)[C@H](O)[C@@H]1O [Compound 7a] | > 10 µM | > 50 µM | – | –
11 | CC(C)O[C@]1(CO)O[C@@H](n2ccc(=O)[nH]c2=O)[C@H](F)[C@@H]1O [Compound 7b] | > 10 µM | > 50 µM | – | –
12 | C#CCO[C@]1(CO)O[C@@H](n2ccc(=O)[nH]c2=O)[C@H](O)[C@@H]1O [Compound 8a] | > 10 µM | > 50 µM | – | –
13 | CO[C@]1(COP(=O)(O)OP(=O)(O)OP(=O)(O)O)O[C@@H](n2ccc(=O)[nH]c2=O)[C@H](O)[C@@H]1O [Compound 9a] | – | – | 0.25 to 1 µM | 0.25 to 1 µM
14 | CO[C@]1(COP(=O)(O)OP(=O)(O)OP(=O)(O)O)O[C@@H](n2ccc(=O)[nH]c2=O)[C@H](F)[C@@H]1O [Compound 9b] | – | – | 1 to 10 µM | –
15 | CO[C@]1(COP(=O)(O)OP(=O)(O)OP(=O)(O)O)O[C@@H](n2ccc(=O)[nH]c2=O)[C@H](O)[C@@H]1F [Compound 9c] | – | – | 0.25 to 1 µM | –
16 | CO[C@@]1(COP(=O)(O)OP(=O)(O)OP(=O)(O)O)C[C@@H](O)[C@H](n2ccc(=O)[nH]c2=O)O1 [Compound 9d] | – | – | 1 to 10 µM | –
17 | CO[C@]1(COP(=O)(O)OP(=O)(O)OP(=O)(O)O)O[C@@H](n2ccc(=O)[nH]c2=O)[C@H](O)[C@@H]1N [Compound 9e] | – | – | > 10 µM | –

Row | Structure (SMILES) | EC50 [1] | CC50 at 72 h [2] | IC50 [3] | IC50 [4]
18 | CO[C@]1(COP(=O)(O)OP(=O)(O)OP(=O)(O)O)O[C@@H](n2ccc(N)nc2=O)[C@H](O)[C@@H]1O [Compound 9f] | – | – | < 0.25 µM | 0.25 to 1 µM
19 | CO[C@]1(COP(=O)(O)OP(=O)(O)OP(=O)(O)O)O[C@@H](n2ccc(N)nc2=O)[C@H](O)[C@@H]1F [Compound 9g] | – | – | 0.25 to 1 µM | 0.25 to 1 µM
20 | CO[C@]1(COP(=O)(N[C@H](C)C(=O)OC(C)C)Oc2ccccc2)O[C@@H](n2ccc(N)nc2=O)[C@H](O)[C@@H]1O (stereo partly drawn) [Compound 13a] | > 10 µM | > 50 µM | – | –
21 | CO[C@]1(COP(=O)(N[C@@H](C)C(=O)OC(C)C)OCCSC(=O)C(C)(C)C)O[C@@H](n2ccc(=O)[nH]c2=O)[C@H](O)[C@@H]1O (stereo partly drawn) [Compound 14a] | > 10 µM | > 50 µM | – | –
22 | CO[C@]1(COP(=O)(O)OP(=O)(O)O)O[C@@H](n2ccc(=O)[nH]c2=O)[C@H](O)[C@@H]1O [Compound 17a] | – | – | > 10 µM | –
23 | CO[C@]1(COP(=O)(O)O)O[C@@H](n2ccc(=O)[nH]c2=O)[C@H](O)[C@@H]1O [Compound 18a] | – | – | > 10 µM | –
24 | CO[C@]1(CO)O[C@@H](n2cnc3c(=O)[nH]c(N)nc32)[C@@H](N=[N+]=[N-])[C@@H]1O [Compound 20] | > 10 µM | > 50 µM | – | –
25 | CO[C@]1(CO)O[C@@H](n2cnc3c(=O)[nH]c(N)nc32)[C@H](N=[N+]=[N-])[C@@H]1O [Compound 21] | > 10 µM | > 50 µM | – | –
26 | CO[C@]1(CO)O[C@@H](n2ccc(=O)[nH]c2=O)[C@H](N=[N+]=[N-])[C@@H]1O [Compound 23] | > 10 µM | > 50 µM | – | –
27 | CO[C@H]1[C@H](n2ccc(=O)[nH]c2=O)O[C@@](CO)(OC)[C@H]1O [Compound 24] | > 10 µM | > 50 µM | – | –
28 | CO[C@]1(COP(=O)(N[C@H](C)C(=O)OC(C)C)Oc2ccccc2)O[C@@H](n2ccc(=O)[nH]c2=O)[C@H](N=[N+]=[N-])[C@@H]1O (stereo partly drawn) [Compound 123] | > 10 µM | > 50 µM | – | –
29 | CO[C@]1(COP(=O)(O)OP(=O)(O)OP(=O)(O)O)O[C@@H](n2cnc3c(=O)[nH]c(N)nc32)[C@@H](N=[N+]=[N-])[C@@H]1O [Compound 220] | – | – | 1 to 10 µM | –
30 | CO[C@]1(COP(=O)(O)OP(=O)(O)OP(=O)(O)O)O[C@@H](n2cnc3c(=O)[nH]c(N)nc32)[C@H](F)[C@@H]1O [Compound 222] | – | – | < 0.25 µM | 0.25 to 1 µM
31 | CO[C@]1(COP(=O)(O)OP(=O)(O)OP(=O)(O)O)O[C@@H](n2ccc(=O)[nH]c2=O)[C@H](N=[N+]=[N-])[C@@H]1O [Compound 223] | – | – | > 10 µM | –
32 | CO[C@H]1[C@H](n2ccc(=O)[nH]c2=O)O[C@@](COP(=O)(O)OP(=O)(O)OP(=O)(O)O)(OC)[C@H]1O [Compound 224] | – | – | > 10 µM | –
33 | CO[C@]1(COP(=O)(O)OP(=O)(O)OP(=O)(O)O)O[C@@H](n2cnc3c(=O)[nH]c(N)nc32)[C@@H](N)[C@@H]1O [Compound 230] | – | – | 1 to 10 µM | –
34 | CO[C@]1(COP(=O)(O)OP(=O)(O)OP(=O)(O)O)O[C@@H](n2ccc(=O)[nH]c2=O)[C@H](N)[C@@H]1O [Compound 233] | – | – | 1 to 10 µM | –
